For this test, the target named is Na+/K+-ATPase (NKA). Description: luminescent ADP detection assay. The class given is biochemical, Sus scrofa.

As a reminder, the IC50 is the concentration that inhibits the measured activity by half. Low readings indicate higher potency, high ones lower potency.

The molecule `CO[C@H]1C[C@H](O[C@H]2CC[C@@]3(C)[C@@H](C2)C[C@@H]2O[C@]24[C@@H]3[C@H](O)C(=O)[C@]2(C)[C@@H](C3=CC(=O)OC3)CC[C@]42O)O[C@@H](C)[C@@H]1O` [compound 1, (–)-cryptanoside A] came in with an IC50 of 1200 nM.

The values are drawn from PMC10331789 (Journal of natural products, 2023).
